Laboratory results as given in patent publication US20050112573A1, “Method of detecting toxic substance” (priority 2001, published 2005).

Test system: yeast genes (level of expressed mRNA)
Assay: DNA chip analysis of expressed mRNA of yeast genes after 2 h culture with a toxic chemical substance
Assay type: cell-based, Saccharomyces cerevisiae S288C
Conditions: for The level of expressed mRNA in the presence of chemical substance/ (ratio to absence): transport facilitation protein gene; for The level of expressed mRNA in the presence of chemical substance/: ratio to no chemical; for The level of expressed mRNA in the presence of chemical substance/ (ratio to absence of chemical substance): stress protein genes, DNA chip
Outline: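 Values are treated-to-control fluorescence ratios from a whole-yeast-genome DNA chip (65° C, over 12 h hybridization) using Cy3/Cy5-labelled cDNA from mRNA. Log-phase S288C cells in YPD at 25° C were exposed 2 h to a toxicant at sublethal, growth-inhibiting concentration.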

sodium dodecylbenzosulfonate [(17)]
The level of expressed mRNA in the presence of chemical substance/in the absence of chemical substance (yeast gene YDR313C): 1.1 | The level of expressed mRNA in the presence of chemical substance/The level of expressed mRNA in the absence of chemical substance (yeast gene YDR315C): 1.2 | The level of expressed mRNA in the presence of chemical substance/ (ratio to absence) (yeast gene YDR342C): 1.0 | The level of expressed mRNA in the presence of chemical substance/ (ratio to absence) (yeast gene YDR343C): 1.1 | The level of expressed mRNA in the presence of chemical substance/ (yeast gene YDR350C): 1.4 | The level of expressed mRNA in the presence of chemical substance/The level of expressed mRNA in the absence of chemical substance (yeast gene YDR358W): 1.9 | The level of expressed mRNA in the presence of chemical substance/in the absence of chemical substance (yeast gene YDR368W): 1.1 | The level of expressed mRNA in the presence of chemical substance/ (yeast gene YDR374C): 1.0 | The level of expressed mRNA in the presence of chemical substance/ (ratio to absence), gene YDR377W (yeast gene YDR377W, mitochondria-located protein genes, 2 h culture with chemical): 1.2 | The level of expressed mRNA in the presence of chemical substance/ (in its absence), gene YDR387C (yeast gene YDR387C, ratio of DNA chip fluorescence intensity to that without chemical substance): 1.2 | The level of expressed mRNA in the presence of chemical substance/The level of expressed mRNA in the absence of chemical substance (yeast gene YDR388W): 1.2 | The level of expressed mRNA in the presence of chemical substance/The level of expressed mRNA in the absence of chemical substance (yeast gene YDR432W): 0.7 | The level of expressed mRNA in the presence of chemical substance/The level of expressed mRNA in the absence of chemical substance (yeast gene YDR481C): 1.2 | The level of expressed mRNA in the presence of chemical substance/ (yeast gene YDR494W): 1.1 | The level of expressed mRNA in the presence of chemical substance/in the absence of chemical substance (yeast gene YDR497C): 1.6 | The level of expressed mRNA in the presence of chemical substance/ (ratio to absence) (yeast gene YDR497C): 1.6 | The level of expressed mRNA in the presence of chemical substance/The level of expressed mRNA in the absence of chemical substance (yeast gene YDR510W): 1.1 | The level of expressed mRNA in the presence of chemical substance/ (yeast gene YDR512C): 1.3 | The level of expressed mRNA in the presence of chemical substance/in the absence of chemical substance (yeast gene YDR516C): 1.1 | The level of expressed mRNA in the presence of chemical substance/ (yeast gene YDR531W): 1.5 | The level of expressed mRNA in the presence of chemical substance/ (ratio to absence) (yeast gene YEL027W): 1.0 | The level of expressed mRNA in the presence of chemical substance/ (ratio to absence of chemical substance) (yeast gene YEL039C): 0.7 | The level of expressed mRNA in the presence of chemical substance/ (yeast gene YEL041W): 1.5 | The level of expressed mRNA in the presence of chemical substance/The level of expressed mRNA in the absence of chemical substance (yeast gene YEL042W): 0.7 | The level of expressed mRNA in the presence of chemical substance/ (ratio to absence) (yeast gene YEL065W): 0.7 | The level of expressed mRNA in the presence of chemical substance/The level of expressed mRNA in the absence of chemical substance (yeast gene YEL066W): 1.0 | The level of expressed mRNA in the presence of chemical substance/ (yeast gene YEL072W): 0.8 | The level of expressed mRNA in the presence of chemical substance/ (in its absence), gene YER015W (yeast gene YER015W, ratio of DNA chip fluorescence intensity to that without chemical substance): 1.6 | The level of expressed mRNA in the presence of chemical substance/The level of expressed mRNA in the absence of chemical substance (yeast gene YER039C): 1.7 | The level of expressed mRNA in the presence of chemical substance/ (yeast gene YER045C): 1.1 | The level of expressed mRNA in the presence of chemical substance/in the absence of chemical substance (yeast gene YER053C): 1.2 | The level of expressed mRNA in the presence of chemical substance/ (ratio to absence) (yeast gene YER053C): 1.2 | The level of expressed mRNA in the presence of chemical substance/ (ratio to absence of chemical substance) (yeast gene YER057C): 1.1 | The level of expressed mRNA in the presence of chemical substance/in the absence of chemical substance (yeast gene YER091C): 1.2 | The level of expressed mRNA in the presence of chemical substance/in the absence of chemical substance (yeast gene YER096W): 1.0 | The level of expressed mRNA in the presence of chemical substance/The level of expressed mRNA in the absence of chemical substance (yeast gene YER107C): 1.1 | The level of expressed mRNA in the presence of chemical substance/ (ratio to absence) (yeast gene YER119C): 1.0 | The level of expressed mRNA in the presence of chemical substance/ (yeast gene YER124C): 0.9 | The level of expressed mRNA in the presence of chemical substance/The level of expressed mRNA in the absence of chemical substance (yeast gene YER130C): 3.0 | The level of expressed mRNA in the presence of chemical substance/in the absence of chemical substance (yeast gene YER178W): 1.1 | The level of expressed mRNA in the presence of chemical substance/ (yeast gene YER181C): 0.7 | The level of expressed mRNA in the presence of chemical substance/in the absence of chemical substance (yeast gene YFL014W): 1.5 | The level of expressed mRNA in the presence of chemical substance/The level of expressed mRNA in the absence of chemical substance (yeast gene YFL028C): 1.2 | The level of expressed mRNA in the presence of chemical substance/in the absence of chemical substance (yeast gene YFL030W): 1.0 | The level of expressed mRNA in the presence of chemical substance/in the absence of chemical substance (yeast gene YFL031W): 1.2 | The level of expressed mRNA in the presence of chemical substance/ (ratio to absence) (yeast gene YFL041W): 1.1 | The level of expressed mRNA in the presence of chemical substance/The level of expressed mRNA in the absence of chemical substance (yeast gene YFL043C): 1.5 | The level of expressed mRNA in the presence of chemical substance/ (ratio to absence) (yeast gene YFL054C): 1.7 | The level of expressed mRNA in the presence of chemical substance/ (ratio to absence) (yeast gene YFL055W): 1.4 | The level of expressed mRNA in the presence of chemical substance/in the absence of chemical substance (yeast gene YFL056C): 1.0 | The level of expressed mRNA in the presence of chemical substance/in the absence of chemical substance (yeast gene YFL057C): 1.6 | The level of expressed mRNA in the presence of chemical substance/in the absence of chemical substance (yeast gene YFL061W): 1.2 | The level of expressed mRNA in the presence of chemical substance/ (yeast gene YFR017C): 0.9 | The level of expressed mRNA in the presence of chemical substance/ (yeast gene YFR042W): 1.7 | The level of expressed mRNA in the presence of chemical substance/ (ratio to absence) (yeast gene YFR045W): 0.9 | The level of expressed mRNA in the presence of chemical substance/ (yeast gene YFR046C): 1.2 | The level of expressed mRNA in the presence of chemical substance/in the absence of chemical substance (yeast gene YFR047C): 1.5 | The level of expressed mRNA in the presence of chemical substance/in the absence of chemical substance (yeast gene YFR053C): 1.4 | The level of expressed mRNA in the presence of chemical substance/ (ratio to absence) (yeast gene YGL008C): 1.1 | The level of expressed mRNA in the presence of chemical substance/ (in its absence), gene YGL035C (yeast gene YGL035C, ratio of DNA chip fluorescence intensity to that without chemical substance): 0.9 | The level of expressed mRNA in the presence of chemical substance/ (yeast gene YGL046W): 1.5 | The level of expressed mRNA in the presence of chemical substance/in the absence of chemical substance (yeast gene YGL062W): 1.1 | The level of expressed mRNA in the presence of chemical substance/ (yeast gene YGL067W): 0.9 | The level of expressed mRNA in the presence of chemical substance/ (yeast gene YGL098W): 1.1 | The level of expressed mRNA in the presence of chemical substance/ (ratio to absence) (yeast gene YGL104C): 1.3 | The level of expressed mRNA in the presence of chemical substance/ (yeast gene YGL114W): 0.9 | The level of expressed mRNA in the presence of chemical substance/ (in its absence), gene YGL115W (yeast gene YGL115W, ratio of DNA chip fluorescence intensity to that without chemical substance): 0.8 | The level of expressed mRNA in the presence of chemical substance/ (ratio to absence of chemical substance) (yeast gene YGL115W): 0.8 | The level of expressed mRNA in the presence of chemical substance/ (yeast gene YGL117W): 2.1 | The level of expressed mRNA in the presence of chemical substance/ (yeast gene YGL146C): 1.0 | The level of expressed mRNA in the presence of chemical substance/in the absence of chemical substance (yeast gene YGL156W): 1.4 | The level of expressed mRNA in the presence of chemical substance/in the absence of chemical substance (yeast gene YGL157W): 1.8 | The level of expressed mRNA in the presence of chemical substance/The level of expressed mRNA in the absence of chemical substance (yeast gene YGL158W): 0.8 | The level of expressed mRNA in the presence of chemical substance/ (ratio to absence) (yeast gene YGL167C): 1.4 | The level of expressed mRNA in the presence of chemical substance/in the absence of chemical substance (yeast gene YGL184C): 1.0 | The level of expressed mRNA in the presence of chemical substance/ (ratio to absence), gene YGL187C (yeast gene YGL187C, mitochondria-located protein genes, 2 h culture with chemical): 0.9 | The level of expressed mRNA in the presence of chemical substance/ (yeast gene YGL193C): 1.1 | The level of expressed mRNA in the presence of chemical substance/ (yeast gene YGL204C): 0.9 | The level of expressed mRNA in the presence of chemical substance/ (in its absence), gene YGL205W (yeast gene YGL205W, ratio of DNA chip fluorescence intensity to that without chemical substance): 3.9 | The level of expressed mRNA in the presence of chemical substance/The level of expressed mRNA in the absence of chemical substance (yeast gene YGL229C): 1.1 | The level of expressed mRNA in the presence of chemical substance/ (yeast gene YGL250W): 1.2 | The level of expressed mRNA in the presence of chemical substance/ (ratio to absence) (yeast gene YGL255W): 0.6 | The level of expressed mRNA in the presence of chemical substance/ (yeast gene YGL259W): 0.9 | The level of expressed mRNA in the presence of chemical substance/ (yeast gene YGR011W): 0.9 | The level of expressed mRNA in the presence of chemical substance/in the absence of chemical substance (yeast gene YGR032W): 3.2 | The level of expressed mRNA in the presence of chemical substance/ (yeast gene YGR042W): 1.3 | The level of expressed mRNA in the presence of chemical substance/in the absence of chemical substance (yeast gene YGR043C): 1.6 | The level of expressed mRNA in the presence of chemical substance/ (yeast gene YGR053C): 1.5 | The level of expressed mRNA in the presence of chemical substance/ (ratio to absence) (yeast gene YGR055W): 0.7 | The level of expressed mRNA in the presence of chemical substance/ in its absence, gene YGR062C (yeast gene YGR062C, energy system protein genes, 2 h culture with the chemical, ratio to control without chemical): 0.9 | The level of expressed mRNA in the presence of chemical substance/ (ratio to absence), gene YGR062C (yeast gene YGR062C, mitochondria-located protein genes, 2 h culture with chemical): 0.9 | The level of expressed mRNA in the presence of chemical substance/ (ratio to absence) (yeast gene YGR065C): 0.7 | The level of expressed mRNA in the presence of chemical substance/ (yeast gene YGR066C): 1.0 | The level of expressed mRNA in the presence of chemical substance/ (in its absence), gene YGR096W (yeast gene YGR096W, ratio of DNA chip fluorescence intensity to that without chemical substance): 0.8
